We go through 1 compound from patent publication US20060105941A1, “Mixed antibiotic codrugs” (ALLERGAN, INC., priority 2004, published 2006).

The test system of test [1] is corneal ulcer. Put plainly: Eye drop given to a patient with corneal ulcer. Type of test: in vivo. The note with it: patient suffering from corneal ulcer, over a period of two weeks. As to the method: An eye drop containing compound 1 is administered to a patient suffering from corneal ulcer over a period of two weeks.
In test [2] the test system is bacterial conjunctivitis. Put plainly: Eye drop given to a patient with bacterial conjunctivitis. Type of test: in vivo. The note with it: patient suffering from bacterial conjunctivitis, over a period of two weeks. As to the method: An eye drop containing compound 1 is administered to a patient suffering from bacterial conjunctivitis over a period of two weeks.

For `COc1c(N2CCN[C@H](C)C2)c(F)cc2c(=O)c(C(=O)OC(C)C(=O)Oc3cccc4c3C(=O)C3=C(O)C5(O)C(=O)C(C(N)=O)=C(O)C(N(C)C)C5CC3C4(C)O)cn(C3CC3)c12` (stereo partly shown) [Compound 1], in test [1], the “bacterial infection after the complete treatment” value is “eliminated” and the “symptoms after the complete treatment” value is “relief of symptoms is experienced”. In test [2], the “bacterial infection after the complete treatment” value is “eliminated” and the “symptoms after the complete treatment” value is “relief of symptoms is experienced”.
